As usually defined, the IC50 is the point on the concentration scale where inhibition reaches its midpoint. By inhibition is commonly meant the share of the control response that was lost under treatment.

Common to all, as to type: biochemical
Test [1] addresses DPP4 (Homo sapiens, UniProt P27487). Briefly: DPP4 inhibition, fluorogenic substrate H-Gly-Pro-AMC. Details: purchased R&D Systems.
Test [2] deals with T1, recombinant human PREP (Homo sapiens, UniProt P48147).
T1 construct: purchased R&D System
T1 sequence (P48147 1-710): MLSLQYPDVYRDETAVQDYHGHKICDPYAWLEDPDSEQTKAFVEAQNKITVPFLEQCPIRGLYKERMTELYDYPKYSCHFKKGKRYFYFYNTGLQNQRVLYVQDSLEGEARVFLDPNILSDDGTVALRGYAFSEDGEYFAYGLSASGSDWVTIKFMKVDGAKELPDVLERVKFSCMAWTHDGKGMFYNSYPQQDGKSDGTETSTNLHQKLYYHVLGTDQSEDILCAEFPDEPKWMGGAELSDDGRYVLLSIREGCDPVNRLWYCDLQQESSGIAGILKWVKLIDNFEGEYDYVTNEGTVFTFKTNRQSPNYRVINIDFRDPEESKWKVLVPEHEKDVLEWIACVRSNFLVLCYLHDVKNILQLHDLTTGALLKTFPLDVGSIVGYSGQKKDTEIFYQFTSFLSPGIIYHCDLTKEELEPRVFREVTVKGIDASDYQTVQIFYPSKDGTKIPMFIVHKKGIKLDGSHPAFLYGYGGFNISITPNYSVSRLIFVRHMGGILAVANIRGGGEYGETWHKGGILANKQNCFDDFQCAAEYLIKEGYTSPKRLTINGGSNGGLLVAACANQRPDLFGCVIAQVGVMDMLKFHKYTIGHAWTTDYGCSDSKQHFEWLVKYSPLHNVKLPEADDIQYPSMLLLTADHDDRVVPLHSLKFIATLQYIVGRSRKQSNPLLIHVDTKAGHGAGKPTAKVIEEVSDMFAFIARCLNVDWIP
In words: PREP inhibition, fluorogenic substrate Z-Gly-Pro-AMC. Conditions: Inhibitory Activity (IC50, nM) PREP. The gist of the method: (§1)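 Enzyme per reaction: 50 ng DPP9, 20 ng DPP8, 10 ng each DPP7 and PREP. Compounds were serially diluted (8 points, up to 0.5% DMSO) and incubated at 25 °C.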

The target of test [3] is T2, recombinant human DPP9 (Homo sapiens, UniProt Q86TI2).
T2 construct: purchased R&D Systems
T2 sequence (Q86TI2 whole entry): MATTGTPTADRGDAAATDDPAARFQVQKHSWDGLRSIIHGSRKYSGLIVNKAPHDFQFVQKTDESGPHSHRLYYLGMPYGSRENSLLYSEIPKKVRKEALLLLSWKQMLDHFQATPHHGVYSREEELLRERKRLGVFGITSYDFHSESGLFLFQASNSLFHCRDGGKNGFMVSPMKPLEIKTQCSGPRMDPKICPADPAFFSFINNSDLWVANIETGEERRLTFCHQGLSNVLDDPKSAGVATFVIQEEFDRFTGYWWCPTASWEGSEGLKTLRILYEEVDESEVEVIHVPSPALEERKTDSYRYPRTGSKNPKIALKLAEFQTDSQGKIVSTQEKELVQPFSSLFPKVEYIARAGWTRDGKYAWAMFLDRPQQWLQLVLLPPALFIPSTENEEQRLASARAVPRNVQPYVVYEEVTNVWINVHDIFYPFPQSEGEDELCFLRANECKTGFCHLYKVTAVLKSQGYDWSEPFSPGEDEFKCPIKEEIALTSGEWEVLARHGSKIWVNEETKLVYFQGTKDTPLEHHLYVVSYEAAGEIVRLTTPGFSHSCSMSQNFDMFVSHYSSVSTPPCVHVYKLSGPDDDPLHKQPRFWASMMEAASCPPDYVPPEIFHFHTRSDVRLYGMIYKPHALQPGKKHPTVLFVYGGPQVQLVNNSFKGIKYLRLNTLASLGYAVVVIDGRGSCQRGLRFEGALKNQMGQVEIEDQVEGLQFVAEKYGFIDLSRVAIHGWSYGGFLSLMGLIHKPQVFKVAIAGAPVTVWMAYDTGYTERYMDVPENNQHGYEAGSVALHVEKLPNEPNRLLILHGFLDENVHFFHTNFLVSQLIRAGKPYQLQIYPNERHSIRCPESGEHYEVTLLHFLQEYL
Briefly: DPP9 inhibition, fluorogenic substrate H-Gly-Pro-AMC. The gist of the method: as §1

In test [4] the target is T3, Recombinant human FAP (Homo sapiens, UniProt Q12884).
T3 construct: purchased R&D systems
T3 sequence (Q12884 1-760): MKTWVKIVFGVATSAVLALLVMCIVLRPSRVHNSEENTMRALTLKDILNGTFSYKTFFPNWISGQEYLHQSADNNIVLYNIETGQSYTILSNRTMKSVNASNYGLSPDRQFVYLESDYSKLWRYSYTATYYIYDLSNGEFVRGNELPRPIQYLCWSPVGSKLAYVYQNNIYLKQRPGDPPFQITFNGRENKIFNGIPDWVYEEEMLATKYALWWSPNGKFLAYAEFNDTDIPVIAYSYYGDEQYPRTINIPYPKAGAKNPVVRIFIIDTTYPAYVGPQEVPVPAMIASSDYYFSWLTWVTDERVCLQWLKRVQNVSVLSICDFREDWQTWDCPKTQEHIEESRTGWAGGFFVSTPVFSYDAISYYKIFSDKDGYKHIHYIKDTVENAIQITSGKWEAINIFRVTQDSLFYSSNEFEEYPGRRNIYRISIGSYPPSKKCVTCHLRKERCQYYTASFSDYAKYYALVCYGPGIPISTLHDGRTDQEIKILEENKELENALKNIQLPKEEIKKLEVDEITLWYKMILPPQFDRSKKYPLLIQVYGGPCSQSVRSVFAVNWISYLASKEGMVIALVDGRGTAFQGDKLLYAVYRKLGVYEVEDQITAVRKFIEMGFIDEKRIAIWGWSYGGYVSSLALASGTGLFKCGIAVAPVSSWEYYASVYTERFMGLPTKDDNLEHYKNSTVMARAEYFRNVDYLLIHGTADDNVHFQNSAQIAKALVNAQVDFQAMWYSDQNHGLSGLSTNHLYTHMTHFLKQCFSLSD
In words: FAP inhibition, fluorogenic substrate Z-Gly-Pro-AMC. The gist of the method:
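Recombinant human FAP, 10 ng per reaction, in 50 mM Tris pH 7.5 with 1 M NaCl and 1 mg/ml BSA at 25° C; substrate Z-Gly-Pro-AMC, ≤0.1% DMSO. AMC fluorescence read at ex 380/em 460 nm; % signal-rate decrease vs no-inhibitor control, 8-point curves fitted to a four-parameter logistic for IC50.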

The target of test [5] is T4, recombinant human DPP8 (Homo sapiens, UniProt Q6V1X1).
T4 construct: purchased PBS Bioscience
T4 sequence (Q6V1X1 whole entry): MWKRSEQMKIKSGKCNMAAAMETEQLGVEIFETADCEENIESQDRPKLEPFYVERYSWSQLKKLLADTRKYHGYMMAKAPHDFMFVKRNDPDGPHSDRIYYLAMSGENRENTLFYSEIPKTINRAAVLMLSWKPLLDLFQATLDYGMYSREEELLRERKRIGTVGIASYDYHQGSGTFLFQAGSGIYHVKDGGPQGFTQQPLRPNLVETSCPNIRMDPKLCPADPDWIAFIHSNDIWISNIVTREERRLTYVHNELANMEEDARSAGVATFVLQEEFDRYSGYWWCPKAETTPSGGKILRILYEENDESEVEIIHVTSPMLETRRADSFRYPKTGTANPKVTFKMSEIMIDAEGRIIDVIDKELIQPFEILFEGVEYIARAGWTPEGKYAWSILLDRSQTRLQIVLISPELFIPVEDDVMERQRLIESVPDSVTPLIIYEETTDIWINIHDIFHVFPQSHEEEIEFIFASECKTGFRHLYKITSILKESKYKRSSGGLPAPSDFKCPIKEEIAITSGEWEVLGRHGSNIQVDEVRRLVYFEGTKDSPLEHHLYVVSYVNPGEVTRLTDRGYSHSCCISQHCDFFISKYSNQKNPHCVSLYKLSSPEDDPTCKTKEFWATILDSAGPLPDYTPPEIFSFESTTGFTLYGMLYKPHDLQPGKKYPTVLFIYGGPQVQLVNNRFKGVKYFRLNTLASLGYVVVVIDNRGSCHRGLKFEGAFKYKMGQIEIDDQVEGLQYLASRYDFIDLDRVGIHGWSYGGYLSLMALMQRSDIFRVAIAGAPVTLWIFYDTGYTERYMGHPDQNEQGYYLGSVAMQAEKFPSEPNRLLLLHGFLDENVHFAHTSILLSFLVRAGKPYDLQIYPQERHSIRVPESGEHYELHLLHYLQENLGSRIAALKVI
Briefly: DPP8 inhibition, fluorogenic substrate Z-Ala-Pro-AMC. The gist of the method:
as §1

In test [6] the target is T5, recombinant human DPP7 (Homo sapiens, UniProt Q9UHL4).
T5 construct: purchased R&D Systems
Briefly: DPP7 inhibition, fluorogenic substrate Lys-Pro-AMC. The gist of the method: as §1

Where [7] appears, read: recombinant human FAP, substrate Z-Gly-Pro-AMC.
Where [8] appears, read: 25° C., H-Gly-Pro-AMC substrate.
Where [9] appears, read: 25° C., Z-Gly-Pro-AMC substrate.
Setting [10] is: 25° C., Z-Ala-Pro-AMC substrate.

Read-outs that look alike come from different tables or passages of the source.

Sequence of DPP4 (P27487 whole entry): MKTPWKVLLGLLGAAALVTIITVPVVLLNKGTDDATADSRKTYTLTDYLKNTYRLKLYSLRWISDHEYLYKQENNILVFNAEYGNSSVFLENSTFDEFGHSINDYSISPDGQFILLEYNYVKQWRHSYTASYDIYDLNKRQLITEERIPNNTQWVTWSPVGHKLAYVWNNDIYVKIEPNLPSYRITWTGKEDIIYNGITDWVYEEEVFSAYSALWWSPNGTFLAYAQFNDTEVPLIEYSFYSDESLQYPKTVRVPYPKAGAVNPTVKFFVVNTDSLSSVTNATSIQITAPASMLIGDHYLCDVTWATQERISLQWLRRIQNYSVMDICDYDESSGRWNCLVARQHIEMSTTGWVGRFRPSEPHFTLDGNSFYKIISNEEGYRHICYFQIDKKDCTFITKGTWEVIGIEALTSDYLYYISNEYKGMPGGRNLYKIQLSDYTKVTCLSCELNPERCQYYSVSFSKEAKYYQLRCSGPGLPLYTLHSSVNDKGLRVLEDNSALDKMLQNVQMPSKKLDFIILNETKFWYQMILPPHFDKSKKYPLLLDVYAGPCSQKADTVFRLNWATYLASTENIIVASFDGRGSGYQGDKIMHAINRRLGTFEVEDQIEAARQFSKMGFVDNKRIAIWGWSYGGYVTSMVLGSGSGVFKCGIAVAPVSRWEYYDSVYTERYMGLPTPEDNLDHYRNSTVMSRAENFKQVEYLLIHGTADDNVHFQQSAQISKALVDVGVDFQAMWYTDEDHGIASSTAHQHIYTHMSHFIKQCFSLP

Turning to `COc1cc(N[C@H]2CCN(CC(=O)N3C[C@@H](F)C[C@H]3C#N)C2)c2cccnc2c1` [Example 257, (2S,4S)-4-fluoro-1-[2-[(3S)-3-[(7-methoxy-5-quinolyl)amino]pyrrolidin-1-yl]acetyl]pyrrolidine-2-carbonitrile], the IC50 in test [1] (recombinant human DPP4) was 0.694 µM; in test [2] (recombinant human PREP), 1530 nM; in test [3] (recombinant human DPP9) it was 6.56 µM; in test [4] (setting [7]) it was 0.0009 µM; in test [5] (recombinant human DPP8), 4.54 µM; in test [6] (recombinant human DPP7), 0.289 µM.

With `N#C[C@@H]1C[C@H](F)CN1C(=O)CN1CC[C@H](Nc2ccnc3c(C(F)(F)F)cccc23)C1` [Example 271, (2S,4S)-4-fluoro-1-[2-[(3S)-3-[[8-(trifluoromethyl)-4-quinolyl]amino]pyrrolidin-1-yl]acetyl]pyrrolidine-2-carbonitrile], the IC50 in test [1] (recombinant human DPP4) is 3.79 µM; in test [2] (recombinant human PREP) it was 3740 nM; in test [3] (recombinant human DPP9), 4.41 µM; in test [4] (setting [7]), 0.0014 µM; in test [5] (recombinant human DPP8), 7.99 µM; in test [6] (recombinant human DPP7) it was 0.213 µM.

For `N#C[C@@H]1C[C@H](F)CN1C(=O)CN1CCC(Nc2ccnc3c(C(F)(F)F)cccc23)CC1` [Example 346, (2S,4S)-4-fluoro-1-[2-[4-[[8-(trifluoromethyl)-4-quinolyl]amino]-1-piperidyl]acetyl]pyrrolidine-2-carbonitrile], the IC50 in test [1] (recombinant human DPP4) is 2.35 µM; in test [2] (recombinant human PREP) it was 637 nM; in test [3] (recombinant human DPP9), 3.26 µM; in test [4] (setting [7]) it was 0.0027 µM; in test [5] (recombinant human DPP8), 5.96 µM; in test [6] (recombinant human DPP7), 0.339 µM.

On to `N#C[C@@H]1C[C@H](F)CN1C(=O)CN1CC[C@H](Nc2cnc3ccccc3c2)C1` [Example 249, (2S,4S)-4-fluoro-1-[2-[(3S)-3-(3-quinolylamino)pyrrolidin-1-yl]acetyl]pyrrolidine-2-carbonitrile], for which the IC50 was 1.45 µM in test [1] (recombinant human DPP4); 1050 nM in test [2] (recombinant human PREP); 5.77 µM in test [3] (recombinant human DPP9); 0.006 µM in test [4] (setting [7]); more than 3 µM in test [5] (recombinant human DPP8); 0.489 µM in test [6] (recombinant human DPP7).

As to `COc1ccc2ncccc2c1N[C@H]1CCN(CC(=O)N2C[C@@H](F)C[C@H]2C#N)C1` [Example 260, (2S,4S)-4-fluoro-1-[2-[(3S)-3-[(6-methoxy-5-quinolyl)amino]pyrrolidin-1-yl]acetyl]pyrrolidine-2-carbonitrile], the IC50 in test [1] (recombinant human DPP4) worked out at 0.741 µM; in test [2] (recombinant human PREP), 6500 nM; in test [3] (recombinant human DPP9), 7.71 µM; in test [4] (setting [7]), 0.0058 µM; in test [5] (recombinant human DPP8), 20.8 µM; in test [6] (recombinant human DPP7) it was 8.28 µM.

For `N#C[C@@H]1C[C@H](F)CN1C(=O)CN1CCC(Oc2cc(C(F)(F)F)nc3ccccc23)CC1` [Example 412, (2S,4S)-4-fluoro-1-[2-[4-[[2-(trifluoromethyl)-4-quinolyl]oxy]-1-piperidyl]acetyl]pyrrolidine-2-carbonitrile], the IC50 in test [1] (recombinant human DPP4) is more than 10 µM; in test [2] (recombinant human PREP), 1280 nM; in test [3] (recombinant human DPP9), 69.8 µM; in test [4] (setting [7]) it was 0.0059 µM; in test [5] (recombinant human DPP8), 12 µM; in test [6] (recombinant human DPP7), 10.7 µM.

On to `COc1ccc2nc(C(F)(F)F)cc(OC3CCN(CC(=O)N4C[C@@H](F)C[C@H]4C#N)CC3)c2c1` [Example 414, (2S,4S)-4-fluoro-1-[2-[4-[[6-methoxy-2-(trifluoromethyl)-4-quinolyl]oxy]-1-piperidyl]acetyl]pyrrolidine-2-carbonitrile], for which the concentration for half-maximal inhibition (IC50) in test [1] (recombinant human DPP4) is more than 10 µM; in test [2] (recombinant human PREP), 57500 nM; in test [3] (recombinant human DPP9) it was more than 100 µM; in test [4] (setting [7]), 0.0043 µM; in test [5] (recombinant human DPP8), 44 µM; in test [6] (recombinant human DPP7), 8.74 µM.

With `N#C[C@@H]1C[C@H](F)CN1C(=O)CN1CCC(Nc2cccc3ccncc23)CC1` [Example 342, (2S,4S)-4-fluoro-1-[2-[4-(8-isoquinolylamino)-1-piperidyl]acetyl]pyrrolidine-2-carbonitrile], the IC50 in test [1] (recombinant human DPP4) came out at 3.26 µM; in test [2] (recombinant human PREP) it was 6650 nM; in test [3] (recombinant human DPP9), 5.33 µM; in test [4] (setting [7]), 0.014 µM; in test [5] (recombinant human DPP8), 39.6 µM; in test [6] (recombinant human DPP7) it was 0.316 µM.

Consider `N#C[C@@H]1CCCN1C(=O)CN1CCC(NC(=O)c2cccc3cccnc23)CC1` [Example 301, N-[1-[2-oxo-2-[(2S)-2-cyanopyrrolidin-1-yl]ethyl]-4-piperidyl]quinoline-8-carboxamide], for which the IC50 in test [1] (recombinant human DPP4) was 8.13 µM; in test [2] (recombinant human PREP), 36000 nM; in test [3] (recombinant human DPP9), more than 100 µM; in test [4] (setting [7]), 0.0695 µM; in test [5] (recombinant human DPP8), more than 100 µM; in test [6] (recombinant human DPP7), 1.56 µM.

In the case of `Cc1cnc2cccc(NC3CCN(CC(=O)N4C[C@@H](F)C[C@H]4C#N)CC3)c2c1` [Example 131, (2S,4S)-4-fluoro-1-(2-(4-((3-methylquinolin-5-yl)amino)piperidin-1-yl)acetyl)pyrrolidine-2-carbonitrile], the IC50 in test [1] (setting [8]) was determined as 3.45 µM; in test [2] (setting [9]), 7920 nM; in test [3] (setting [8]), 2.78 µM; in test [4] (setting [9]), 0.00273 µM; in test [5] (setting [10]), 8.26 µM; in test [6], 0.61 µM.

As to `N#C[C@@H]1CCCN1C(=O)CN1CC[C@H](Nc2cc(C(F)(F)F)cc3ncccc23)C1` [Example 238, (2S)-1-[2-[(3S)-3-[[7-(trifluoromethyl)-5-quinolyl]amino]pyrrolidin-1-yl]acetyl]pyrrolidine-2-carbonitrile], the IC50 in test [1] (recombinant human DPP4) is more than 10 µM; in test [2] (recombinant human PREP), 3930 nM; in test [3] (recombinant human DPP9), 29.3 µM; in test [4] (setting [7]), 0.0014 µM; in test [5] (recombinant human DPP8), more than 100 µM; in test [6] (recombinant human DPP7), 2.21 µM.

Regarding `COc1cc2nccc(O[C@H]3CCN(CC(=O)N4C[C@@H](F)C[C@H]4C#N)C3)c2cc1OC` [Example 300, (2S,4S)-4-fluoro-1-[2-[(3S)-3-[(6,7-dimethoxy-4-quinolyl)oxy]pyrrolidin-1-yl]acetyl]pyrrolidine-2-carbonitrile], the IC50 in test [1] (recombinant human DPP4) was more than 10 µM; in test [2] (recombinant human PREP) it was 4890 nM; in test [3] (recombinant human DPP9), 12.1 µM; in test [4] (setting [7]), 0.0019 µM; in test [5] (recombinant human DPP8) it was 17.8 µM; in test [6] (recombinant human DPP7), 2.93 µM.

With `N#C[C@@H]1CCCN1C(=O)CN1CC[C@H](NC(=O)c2coc3ccc(F)cc23)C1` [Example 43, N—((S)-1-(2-((S)-2-cyanopyrrolidin-1-yl)-2-oxoethyl)pyrrolidin-3-yl)-5-fluorobenzofuran-3-carboxamide], the inhibition at 1 µM in test [1] (read-out: hDPP4 inhibition % at 1 μM) turned out to be 0.2%. For the same compound, the IC50 is 8350 nM in test [2] (setting [9]); more than 100 µM in test [3] (setting [8]); 0.00994 µM in test [4] (setting [9]); 44.7 µM in test [5] (setting [10]); 3.37 µM in test [6].

Values taken from patent US11655235B2, “Pyrrolidine and piperidine compounds” (YUHAN CORPORATION, priority 2019, dated 2023).
